This data set can be described thus: Storage stability of STI-Cl at room temperature. The format is physicochemical. The text has this: Attempts to make radiolabeling precursor, triflate, mesylate active leaving group from STI-OH failed because it was easily degraded into a mixture of starting material alcohol and STI-Cl during the purification of chromatography on Silica Gel. The behavior of these β-triflate amines may be due to the participation effect of nitrogen which cause triflate to leave by aliphatic chain cyclisation giving the aziridinium ion, which in turn reacts with the nucleophilic agent OH^−, Cl^−. In order to get a pure precursor, STI-Cl analog was selected as a target compound. The hydroxyl-Benzoic acid (9c) was treated with thionyl chloride to achieve the corresponding chloro-acid chloride dihydrochloride (10d). Subsequent condensation with N-(2-Methyl-5-aminophenyl)-4-(3-pyridyl)-2-pyrimidine-amine (6) in pyridine affords the STI-Cl. […] The Sti-Cl was treated with tetra ammonia fluoride at 80° C. in acetonitrile for 30 mins to generate cold Sti-F. Sti-Cl was also treated with tetra ammonia fluoride at 80° C. in acetonitrile microwave for 5 mins to generate cold Sti-F. The traditional heating method gave more yield and the microwave condition gave more clean reaction. (FIG. 3).

Consider `Cc1ccc(NC(=O)c2ccc(CN3CCN(CCCl)CC3)cc2)cc1Nc1nccc(-c2cccnc2)n1` [STI-Cl], for which the stability entry was “not stable and decomposed at room temperature over two weeks”.

The values above are taken from patent US20110097268A1, “RADIOHALOIMATINIBS AND METHODS OF THEIR SYNTHESIS AND USE IN PET IMAGING OF CANCERS” (priority 2006, published 2011).
